Measurements taken from PubChem BioAssay (NCI).
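Interpolation was linear, between the two tested concentrations surrounding the appropriate level; five concentrations were tested over 48 hours in 96-well plates. At the TGI there is no net growth.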 *1 amine or outer side, *2 acyl side, *3 side chain or, on linkers, in order; H or OH if unused. Where a SMILES comes first, the peptide text is derived from it. [ ]: non-standard residue; d: D form. The star is where a group is joined. X31 = CC(=O)N(C)SCC(N[*:1])C(=O)[*:2]; Cbz = O=C(OCc1ccccc1)*; Bn = c1ccc(C*)cc1; For = O=C*

Key:
Assay in all cases: inhibition of tumour cell growth, NCI panel, 48 h
SN12C renal = test system: SN12C renal
NCI/ADR-RES ovarian = test system: NCI/ADR-RES ovarian
786-0 renal = test system: 786-0 renal
COLO 205 colon = test system: COLO 205 colon
CCRF-CEM leukemia = test system: CCRF-CEM leukemia
HS 578T breast = test system: HS 578T breast
HL-60(TB) leukemia = test system: HL-60(TB) leukemia
SW-620 colon = test system: SW-620 colon
SF-295 CNS = test system: SF-295 CNS
M14 melanoma = test system: M14 melanoma
NCI-H23 lung = test system: NCI-H23 lung
OVCAR-3 ovarian = test system: OVCAR-3 ovarian
ACHN renal = test system: ACHN renal
UO-31 renal = test system: UO-31 renal
OVCAR-8 ovarian = test system: OVCAR-8 ovarian
HCC-2998 colon = test system: HCC-2998 colon
SNB-75 CNS = test system: SNB-75 CNS
SK-MEL-5 melanoma = test system: SK-MEL-5 melanoma
A498 renal = test system: A498 renal

Compound	TGI (SN12C renal)	TGI (NCI/ADR-RES ovarian)	TGI (786-0 renal)	TGI (COLO 205 colon)	TGI (CCRF-CEM leukemia)	TGI (HS 578T breast)	TGI (HL-60(TB) leukemia)	TGI (SW-620 colon)	TGI (SF-295 CNS)	TGI (M14 melanoma)	TGI (NCI-H23 lung)	TGI (OVCAR-3 ovarian)	TGI (ACHN renal)	TGI (UO-31 renal)	TGI (OVCAR-8 ovarian)	TGI (HCC-2998 colon)	TGI (SNB-75 CNS)	TGI (SK-MEL-5 melanoma)	TGI (A498 renal)
COc1ccc2[nH]cc(CCNC(=O)[C@H](Cc3ccccc3)NC(=O)[C@@H](NCC(F)(F)F)C(C)C)c2c1	49 µM	41 µM	35.1 µM	32.3 µM	7.89 µM	39.6 µM	46.2 µM	81.6 µM	25.2 µM	34.1 µM	64.6 µM	31.1 µM	67.7 µM	68.3 µM	54.4 µM	–	–	–	–
O=C1/C(=C\c2ccc(O)cc2)CCC/C1=C/c1ccc(Cl)c(Cl)c1	10.4 µM	4.27 µM	6.05 µM	3.67 µM	1.2 µM	21.5 µM	4.94 µM	12 µM	10.1 µM	5.44 µM	10.1 µM	9.73 µM	12.1 µM	5.6 µM	–	5.94 µM	11.8 µM	19.6 µM	14.3 µM
C1=NCCN2CCN(CCN=Cc3ccc(cc3)OCc3cccc(n3)COc3ccc1cc3)CC2	> 50 µM	> 50 µM	> 50 µM	> 50 µM	> 50 µM	> 50 µM	> 50 µM	> 50 µM	> 50 µM	> 50 µM	> 50 µM	> 50 µM	> 50 µM	> 50 µM	> 50 µM	–	> 50 µM	–	> 50 µM
O=C(NC1=NCC(CN2CCN(c3ccccc3)CC2)O1)Nc1ccccc1 (stereo not given)	> 100 µM	> 100 µM	> 100 µM	> 100 µM	> 100 µM	> 100 µM	> 100 µM	> 100 µM	> 100 µM	> 100 µM	> 100 µM	–	> 100 µM	> 100 µM	–	> 100 µM	–	> 100 µM	> 100 µM
O=C1/C(=C/c2cccc(Br)c2)CCc2ccccc21	29.2 µM	33.2 µM	29.8 µM	40.8 µM	13.4 µM	24.8 µM	28.3 µM	17.9 µM	28.5 µM	29.4 µM	32.6 µM	28.6 µM	27.7 µM	26.7 µM	36.1 µM	–	30 µM	–	–
C=CCN1C(=O)C=C(c2ccccc2)n2ncc3cccc1c32	> 100 µM	> 100 µM	> 100 µM	> 100 µM	> 100 µM	> 100 µM	> 100 µM	> 100 µM	> 100 µM	> 100 µM	> 100 µM	> 100 µM	> 100 µM	> 100 µM	> 100 µM	–	–	> 100 µM	> 100 µM
CCOC(=O)/C(C#N)=C\c1ccc(N(CCC(=O)O)CCC(=O)O)c(I)c1	> 10 µM	> 10 µM	> 10 µM	> 10 µM	> 10 µM	> 10 µM	> 10 µM	> 10 µM	> 10 µM	> 10 µM	> 10 µM	–	> 10 µM	> 10 µM	> 10 µM	> 10 µM	> 10 µM	> 10 µM	–
O=C1/C(=C/c2cccc(F)c2)CCCc2ccccc21	31.8 µM	33.1 µM	30.9 µM	36.4 µM	34 µM	28.5 µM	62.9 µM	30.5 µM	29.7 µM	26.8 µM	42.6 µM	28.6 µM	33.1 µM	29.9 µM	29.3 µM	27.8 µM	41.3 µM	–	–
O=C(CN1CCCCC1)Nc1ccc2sc3ccccc3c(=O)c2n1	68.3 µM	36.1 µM	37.2 µM	28.3 µM	> 100 µM	45.2 µM	68.9 µM	31.4 µM	36.6 µM	41.4 µM	38.8 µM	> 100 µM	33.4 µM	21.6 µM	47.4 µM	36.8 µM	32.3 µM	36.1 µM	–
O=c1oc2ccc3ccccc3c2cc1-c1cn2ccccc2n1	> 100 µM	> 100 µM	> 100 µM	> 100 µM	> 100 µM	> 100 µM	> 100 µM	> 100 µM	> 100 µM	> 100 µM	> 100 µM	> 100 µM	94.2 µM	> 100 µM	> 100 µM	> 100 µM	> 100 µM	> 100 µM	–
CC(=O)C(=C(c1ccccc1)c1ccccc1)c1ccccc1	> 100 µM	> 100 µM	> 100 µM	> 100 µM	> 100 µM	> 100 µM	> 100 µM	> 100 µM	> 100 µM	> 100 µM	> 100 µM	> 100 µM	> 100 µM	> 100 µM	> 100 µM	> 100 µM	> 100 µM	> 100 µM	–
Cc1cc2c(cc1-c1cc3c(cc1C)C(C(C)C)=C(O)C(=O)/C3=C\Nc1c3ccccc3nc3ccccc13)/C(=C/Nc1c3ccccc3nc3ccccc13)C(=O)C(O)=C2C(C)C	22 µM	12.9 µM	14.8 µM	6.72 µM	25.5 µM	21 µM	11.2 µM	13.3 µM	12.9 µM	12.6 µM	15 µM	14.5 µM	5.91 µM	15.4 µM	12.8 µM	–	13 µM	15.4 µM	21.9 µM
C=CCNC1=C2C[C@@H](C)C[C@@H](OC)[C@H](OC(=O)CCN)[C@H](C)/C=C(\C)[C@@H](OC(N)=O)[C@H](OC)/C=C\C=C(/C)C(=O)NC(=CC1=O)C2=O	16.2 µM	> 100 µM	17 µM	10.1 µM	–	52.9 µM	17.9 µM	> 100 µM	14.1 µM	17.3 µM	13 µM	6.56 µM	25.2 µM	24.2 µM	18.4 µM	3.61 µM	9.63 µM	17.4 µM	17.6 µM
NC(N)=N/N=C/c1c(-c2ccc(Cl)cc2)nc2sccn12	3.9 µM	23.3 µM	2.99 µM	2.87 µM	4.23 µM	37.6 µM	–	3.04 µM	3.13 µM	3.17 µM	19.9 µM	3.6 µM	2.82 µM	7.49 µM	–	2.74 µM	3.61 µM	3.19 µM	13.2 µM
COc1cc(O)c2c(=O)cc(-c3ccc(O)cc3O)oc2c1CC=C(C)C	31.5 µM	> 100 µM	> 100 µM	26.7 µM	63 µM	> 100 µM	34.4 µM	> 100 µM	30.2 µM	30.2 µM	32.5 µM	–	30.4 µM	33.5 µM	35.3 µM	–	46.1 µM	47.9 µM	66.4 µM
CSc1nc(C#N)c(/N=C\N(C)C)n1C	> 100 µM	> 100 µM	> 100 µM	> 100 µM	> 100 µM	> 100 µM	> 100 µM	> 100 µM	> 100 µM	> 100 µM	> 100 µM	> 100 µM	> 100 µM	> 100 µM	> 100 µM	–	–	> 100 µM	> 100 µM
C=CCNC(=O)NC(=O)CSC1=NNC2(C(=O)N1)c1ccccc1-c1ccccc12	> 10 µM	> 10 µM	> 10 µM	> 10 µM	> 10 µM	> 10 µM	> 10 µM	> 10 µM	> 10 µM	> 10 µM	> 10 µM	–	> 10 µM	> 10 µM	> 10 µM	> 10 µM	> 10 µM	> 10 µM	–
CC(=O)N(C)SCC(NC(=O)C(Cc1ccccc1)NC(=O)OCc1ccccc1)C(=O)NC(Cc1ccccc1)C(=O)NC(Cc1cn(C=O)c2ccccc12)C(=O)NC(CCCCNC(=O)OCc1ccccc1)C(=O)NC(C(=O)NC(CSN(C)C(C)=O)C(=O)NC(C(N)=O)C(C)OCc1ccccc1)C(C)OCc1ccccc1 (stereo not given) (Cbz-F[X31]FW(For)K(Cbz)T(Bn)[X31]T(Bn)-NH2; configuration not given here)	> 100 µM	> 100 µM	> 100 µM	> 100 µM	> 100 µM	> 100 µM	> 100 µM	> 100 µM	> 100 µM	> 100 µM	> 100 µM	> 100 µM	> 100 µM	> 100 µM	> 100 µM	> 100 µM	36.9 µM	> 100 µM	–
Cc1cc(=O)[nH]c(-n2[nH]c(C)c(CCO)c2=O)n1	> 100 µM	> 100 µM	> 100 µM	> 100 µM	> 100 µM	> 100 µM	> 100 µM	> 100 µM	> 100 µM	> 100 µM	> 100 µM	> 100 µM	> 100 µM	> 100 µM	> 100 µM	> 100 µM	–	> 100 µM	> 100 µM
N#Cc1c(N)nc(-c2ccc(Cl)cc2)c2c1-c1ccccc1S(=O)(=O)CC2	> 100 µM	> 100 µM	> 100 µM	> 100 µM	–	> 100 µM	–	> 100 µM	–	> 100 µM	> 100 µM	> 100 µM	> 100 µM	> 100 µM	> 100 µM	> 100 µM	> 100 µM	> 100 µM	> 100 µM
COC(=O)/C=C(/C)n1nc2ccccc2n1	> 100 µM	> 100 µM	> 100 µM	> 100 µM	> 100 µM	> 100 µM	–	> 100 µM	> 100 µM	> 100 µM	> 100 µM	> 100 µM	> 100 µM	> 100 µM	> 100 µM	> 100 µM	> 100 µM	> 100 µM	> 100 µM
Clc1ccc(NCc2nnc(CCCCCCCCc3nnc(CNc4ccc(Cl)cc4)o3)o2)cc1	> 100 µM	> 100 µM	> 100 µM	> 100 µM	> 100 µM	> 100 µM	–	–	> 100 µM	> 100 µM	> 100 µM	> 100 µM	> 100 µM	> 100 µM	> 100 µM	> 100 µM	> 100 µM	> 100 µM	> 100 µM
O=C1C(Cl)C2(CC(/C=C/c3ccccc3Cl)=NN2c2cccc(S(=O)(=O)O)c2)N1c1nc2ccccc2s1 (stereo not given)	> 100 µM	> 100 µM	62.3 µM	> 100 µM	33.9 µM	> 100 µM	> 100 µM	> 100 µM	–	> 100 µM	> 100 µM	–	> 100 µM	16.3 µM	> 100 µM	> 100 µM	> 100 µM	> 100 µM	> 100 µM
CC(C)OC(=O)c1ccc(NCc2cc(O)ccc2O)cc1Cl	32.2 µM	> 100 µM	10.8 µM	9.08 µM	–	> 100 µM	–	> 62.5 µM	34.6 µM	> 100 µM	28.6 µM	> 42.2 µM	7.83 µM	2.38 µM	> 70.1 µM	17.3 µM	31.1 µM	11.1 µM	> 75.9 µM
CS(=O)(=O)c1nc(-c2cc3c(c(S(C)(=O)=O)n2)CCC3)cc2c1CCCCC2	> 100 µM	> 100 µM	> 100 µM	> 100 µM	> 100 µM	40 µM	> 100 µM	> 100 µM	> 100 µM	> 100 µM	> 100 µM	> 100 µM	> 100 µM	> 100 µM	> 100 µM	> 100 µM	24.7 µM	> 100 µM	–
